# Like-named read-outs stand apart in the source and are kept apart here. The star is where a group is joined. Biotin = O=C1N[C@H]2[C@H](CS[C@H]2CCCCC(=O)*)N1; Ahx = NCCCCCC(=O)O
# Assays:
# keratinocyte [1] = settings: aCT1 treatment, Student's t-test p<0.0001, n=8, FIG. 9A
# From the text: (§1) Student's t-test, *p<0.0001; n=8; mean±SEM. […] Student's t-test, *p<0.0018; n=3; mean±SEM.
# keratinocyte [2] = settings: aCT1 treatment, Student's t-test p<0.0018, n=3, FIG. 9B
# From the text: as §1
substance,measurement,setting,value
{Biotin-Ahx}-RQPKIWFPNRRKPWKKRPRPDDLEI-OH [aCT1],keratinocyte proliferation,keratinocyte [1],an increase in keratinocyte proliferation
same,keratinocyte proliferation,keratinocyte [1]; listed as aCT1 peptide,accelerated keratinocyte migration and proliferation
same,keratinocyte migration,keratinocyte [2],an increase in keratinocyte migration
same,keratinocyte migration,keratinocyte [2]; listed as aCT1 peptide,accelerated keratinocyte migration and proliferation

# From patent publication US20250057917A1, “COMPOSITION AND METHODS FOR TREATING RADIATION INDUCED INJURY” (Xequel Bio, Inc., priority 2023, published 2025)
